Measured values: PMC5493200 (ACS infectious diseases, 2016)

Key:
M. tuberculosis H37Rv = test: microbe, parasite or virus in culture; type: cell-based, Mycobacterium tuberculosis; conditions: for MIC (H37Rv): Table 5; for H37Rv MIC: Tables 1-4 and text
[1] = test system: M. tuberculosis H37Rv Rv1258c knockout (KO); test: microbe, parasite or virus in culture; type: cell-based; conditions: Tables 1-4 and text; 7 days, 7H9 broth
[2] = target: Purified 70S M. smegmatis bacterial ribosomes (Mycolicibacterium smegmatis, UniProt A0QSG6); test: Ribosomal translation inhibition; type: biochemical; conditions: inhibits luciferase activity by 50%
M. bovis BCG = type: cell-based; conditions: average of 2–3 replicates, standard deviation in parenthesis
[3] = Microsomal stability, human; type: in vitro ADME; conditions: human liver microsomes
[4] = Microsomal stability, mouse; type: in vitro ADME; conditions: mouse liver microsomes
Protein binding, human = type: in vitro ADME
Protein binding, mouse = type: in vitro ADME
HepG2 cells = test: Mammalian cytotoxicity; type: cell-based
M. tuberculosis Erdman = test: Mouse model of acute tuberculosis infection; type: in vivo; conditions: 9 days, vs control
Rv1258c efflux pump = conditions: for Efflux Ratio: H37Rv MIC / Rv1258c KO MIC
[5] = heteroaryl ring of side chain; ref not given; cited from earlier work
[6] = Maximum tolerated dose / tolerability; type: in vivo, mouse; conditions: mice; for Maximum tolerated dose (MTD): subcutaneous
[7] = first new trial (Figure 3B), 200 mg/kg BID, subcutaneous
[8] = second new trial (Figure 3C), 200 mg/kg BID, subcutaneous

Chain of Purified 70S M. smegmatis bacterial ribosomes (A0QSG6 whole entry): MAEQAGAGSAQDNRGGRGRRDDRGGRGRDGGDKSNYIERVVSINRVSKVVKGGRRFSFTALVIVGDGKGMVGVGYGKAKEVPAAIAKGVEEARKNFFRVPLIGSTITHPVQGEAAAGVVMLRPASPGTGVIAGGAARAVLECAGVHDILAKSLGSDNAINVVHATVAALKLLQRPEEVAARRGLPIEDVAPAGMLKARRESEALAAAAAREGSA

SMILES	MIC (H37Rv) (M. tuberculosis H37Rv)	H37Rv MIC (M. tuberculosis H37Rv)	Rv1258c KO MIC [1]	Ribosome IC50 [2]	Post Antibiotic Effect (M. bovis BCG)	Microsomal stability t1/2 human [3]	Microsomal stability t1/2 mouse [4]	Protein binding human (Protein binding, human)	Protein binding mouse (Protein binding, mouse)	Cytotoxicity (HepG2) (HepG2 cells)	Reduction of bacterial load in lungs (M. tuberculosis Erdman; [7])	Efflux Ratio (Rv1258c efflux pump)	pKa [5]	Reduction of bacterial load in lungs (M. tuberculosis Erdman; [8])	Maximum tolerated dose (MTD) [6]	Reduction of bacterial load in lungs (M. tuberculosis Erdman; second new trial (Figure 3C), 100 mg/kg)	Well tolerated dosing ([6]; efficacy trial dosing (Table S3))	Fold change of MIC between H37Rv and Rv1258c KO (efflux) (Rv1258c efflux pump)
Br.Br.Br.CN[C@@H]1[C@H](O)[C@H](NC)[C@H]2O[C@]3(O)[C@H](O[C@@H]2[C@H]1O)O[C@H](C)C[C@H]3NC(=O)Cc1nc2ccccc2[nH]1 [Compound 27, 3′-Dihydro-3′-deoxy-3′(R)-(1H-benzo[d]imidazol-2-yl)acetylamino spectinomycin trihydrobroride]	1.6 µg/mL	1.6 µg/mL	1.6 µg/mL	0.26 µg/mL	137 h	>50 h	>50 h	26.3%	12.1%	>400 µg/mL	1.6 logs	1	5.6	–	–	–	–	–
CN[C@@H]1[C@H](O)[C@H](NC)[C@H]2O[C@]3(O)[C@H](O[C@@H]2[C@H]1O)O[C@H](C)C[C@H]3NC(=O)Cc1ccc(O)cn1.Cl.Cl.Cl [Compound 39, 3′-Dihydro-3′-deoxy-3′(R)-(5-hydroxypyridin-2-yl)acetylamino spectinomycin trihydrochloride]	1.6 µg/mL	1.6 µg/mL	3.1 µg/mL	0.84 µg/mL	20 (18) h	7.4 h	13.4 h	35.1%	30.7%	>400 µg/mL	–	0.5	–	1.5 log	> 400 mg/kg	–	–	–
Br.Br.Br.CN[C@@H]1[C@H](O)[C@H](NC)[C@H]2O[C@]3(O)[C@H](O[C@@H]2[C@H]1O)O[C@H](C)C[C@H]3NC(=O)Cc1nccc(Cl)c1C [Compound 46, 3′-Dihydro-3′-deoxy-3′(R)-(4-chloro-3-methylpyridin-2-yl)acetylamino spectinomycin trihydrobromide]	3.1 µg/mL	3.1 µg/mL	1.6 µg/mL	0.59 µg/mL	–	>50 h	>50 h	46.6%	36.4%	>400 µg/mL	least reduction in bacterial loads	2	–	–	–	–	–	–
CN[C@@H]1[C@H](O)[C@H](NC)[C@H]2O[C@]3(O)[C@H](O[C@@H]2[C@H]1O)O[C@H](C)C[C@H]3NC(=O)Cc1ccc(OC(F)(F)F)cn1.Cl.Cl.Cl [Compound 41, 3′-Dihydro-3′-deoxy-3′(R)-(5-(trifluoromethoxy)pyridin-2-yl)acetylamino spectinomycin trihydrochloride]	3.1 µg/mL	3.1 µg/mL	0.8 µg/mL	0.96 µg/mL	61 (17) h	22.4 h	27.0 h	51.4%	58.4%	>400 µg/mL	–	4	–	–	–	1.1 log	100 mg/kg	–
Br.Br.Br.CN[C@@H]1[C@H](O)[C@H](NC)[C@H]2O[C@]3(O)[C@H](O[C@@H]2[C@H]1O)O[C@H](C)C[C@H]3NC(=O)Cc1cc(Cl)c(F)cn1 [Compound 49, 3′-Dihydro-3′-deoxy-3′(R)-(4-chloro-5-fluoropyridin-2-yl)acetylamino spectinomycin trihydrobromide]	0.8 µg/mL	0.8 µg/mL	0.8 µg/mL	0.22 µg/mL	116 (19) h	>50 h	>50 h	56.3%	39.3%	>400 µg/mL	–	–	–	–	–	–	–	–
CN[C@@H]1[C@H](O)[C@H](NC)[C@H]2O[C@]3(O)[C@H](O[C@@H]2[C@H]1O)O[C@H](C)C[C@H]3NC(=O)Cc1ncc[nH]1.Cl.Cl.Cl [Compound 21, 3′-Dihydro-3′-deoxy-3′(R)-(1H-imidazol-2-yl)acetylamino spectinomycin trihydrochloride]	–	12.5 µg/mL	6.3 µg/mL	0.56 µg/mL	–	–	–	–	–	–	–	2	7.0	–	–	–	–	–
Br.Br.Br.CN[C@@H]1[C@H](O)[C@H](NC)[C@H]2O[C@]3(O)[C@H](O[C@@H]2[C@H]1O)O[C@H](C)C[C@H]3NC(=O)Cc1ccc(OC)cn1 [Compound 38, 3′-Dihydro-3′-deoxy-3′(R)-(5-methoxypyridin-2-yl)acetylamino spectinomycin trihydrobromide]	3.1 µg/mL	3.1 µg/mL	6.3 µg/mL	0.39 µg/mL	56 (12) h	3.4 h	4.8 h	51.4%	57.3%	>400 µg/mL	–	0.5	–	1.6 log	–	–	–	–
Br.Br.Br.CNC1C(O)C(NC)C2OC3(O)C(NC(=O)Cc4nc5ccccc5s4)CC(C)OC3OC2C1O [Compound 25, 3′-Dihydro-3′-deoxy-3′(R)-(benzo[d]thiazol-2-yl)acetylamino spectinomycin trihydrobroride]	–	1.6 µg/mL	0.8 µg/mL	1.09 µg/mL	–	–	–	–	–	–	–	2	–	–	mild toxicity noted when dosage exceeded 100 mg/kg	–	–	–
Br.Br.Br.CNC1C(O)C(NC)C2OC3(O)C(NC(=O)Cc4ncccc4C)CC(C)OC3OC2C1O [Compound 29, 3′-Dihydro-3′-deoxy-3′(R)-(3-methylpyridin-2-yl)acetylamino spectinomycin trihydrobromide]	–	25 µg/mL	6.3 µg/mL	1.00 µg/mL	–	–	–	–	–	–	–	4	–	–	–	–	–	–
Br.Br.Br.CNC1C(O)C(NC)C2OC3(O)C(OC(C)C[C@H]3NC(=O)Cc3cccc(C)n3)OC2C1O (stereo partly drawn) [Compound 32, 3′-Dihydro-3′-deoxy-3′(R)-(6-methylpyridin-2-yl)acetylamino spectinomycin trihydrobromide]	–	25 µg/mL	6.3 µg/mL	0.50 µg/mL	–	–	–	–	–	–	–	4	–	–	–	–	–	–
Br.Br.Br.CNC1C(O)C(NC)C2OC3(O)C(OC(C)C[C@H]3NC(=O)Cn3ccnc3)OC2C1O (stereo partly drawn) [Compound 23, 3′-Dihydro-3′-deoxy-3′(R)-(1H-imidazol-1-yl)acetylamino spectinomycin trihydrobromide]	–	100 µg/mL	12.5 µg/mL	1.51 µg/mL	–	–	–	–	–	–	–	8	–	–	–	–	–	8 fold
CNC1C(O)C(NC)C2OC3(O)C(NC(=O)Cc4cc5ccccc5[nH]4)CC(C)OC3OC2C1O [Compound 28, 3′-Dihydro-3′-deoxy-3′(R)-(1H-indol-2-yl)acetylamino spectinomycin]	–	25 µg/mL	0.8 µg/mL	0.77 µg/mL	–	–	–	–	–	–	–	32	–	–	–	–	–	32 fold
Br.Br.Br.CNC1C(O)C(NC)C2OC3(O)C(OC(C)C[C@H]3NC(=O)Cc3nc4ccccc4n3C)OC2C1O (stereo partly drawn) [Compound 26, 3′-Dihydro-3′-deoxy-3′(R)-(1-methyl-1H-benzo[d]imidazol-2-yl)acetylamino spectinomycin trihydrobroride]	–	6.3 µg/mL	3.1 µg/mL	0.26 µg/mL	–	–	–	–	–	–	–	2	–	–	–	–	–	–
CNC1C(O)C(NC)C2OC3(O)C(NC(=O)Cc4cc(O)ccn4)CC(C)OC3OC2C1O.Cl.Cl.Cl [Compound 35, 3′-Dihydro-3′-deoxy-3′(R)-(4-hydroxypyridin-2-yl)acetylamino spectinomycin trihydrochloride]	–	25 µg/mL	12.5 µg/mL	0.44 µg/mL	–	–	–	–	–	–	–	2	–	–	–	–	–	–
Br.Br.CNC1C(O)C(NC)C2OC3(O)C(NS(=O)(=O)Cc4ccccc4)CC(C)OC3OC2C1O [Compound 9, 3′-Dihydro-3′-deoxy-3′(R)-benzylsulfonylamino spectinomycin dihydrobromide]	–	>200 µg/mL	12.5 µg/mL	10.97 µg/mL	–	–	–	–	–	–	–	>16	–	–	–	–	–	–
